Laboratory results from publication PMC8920379, “The discovery of berberine erythrocyte-hemoglobin self-assembly delivery system: a neglected carrier underlying its pharmacokinetics” (Drug Delivery, 2022).
Where two headings read alike, the source gives them in different places.

Test: Bioavailability study of BBR via intravenous and oral administration (free drug in plasma, HPLC)
Format: in vivo, SD rats
Details: rat plasma; for AUC(0-t): n = 8, mean ± SEM
Description: Sixteen SD rats were randomly divided into two groups (n = 8) and received a single intragastrical administration (i.g.) of BBR at the dose of 400 mg/kg and intravenous injection (i.v.) at 2.5 mg/kg dose, respectively. Blood samples (0.5 mL) were obtained from the retroorbital sinus at 0.083, 0.167, 0.25, 0.5, 1, 2, 4, 8 and 24 h after administration for i.v. group and at 0.083, 0.167, 0.25, 0.5, 1, 2, 4, 8 and 24 h for i.g. groups. The plasma samples were processed with a protein precipitation method using acetonitrile and the concentration of free drug was analyzed by HPLC (Li et al., [2016]).

[1] = SD, intravenous administration 2.5 mg/kg, n = 8
[2] = SD, oral administration 400 mg/kg, n = 8

Question: With COc1ccc2cc3[n+](cc2c1OC)CCc1cc2c(cc1-3)OCO2 [BBR, Berberine] as the compound, how does the AUC(0-inf) [1] read?
Answer: 7440 ± 548 ng·h/mL

Question: What about the MRT [1] of the same compound?
Answer: 5.6 ± 0.561 h

Question: What about the AUC(0-t) (SD, intravenous administration 2.5 mg/kg) of the same compound?
Answer: 6420 ± 685 ng·h/mL

Question: And the Cmax (SD, intravenous administration 2.5 mg/kg, n = 8, read-out: Cmax/C0 (C0))?
Answer: 2830 ± 132 ng/mL

Question: And the AUC(0-inf) [2]?
Answer: 685 ± 93 ng·h/mL

Question: And the MRT [2]?
Answer: 4.53 ± 0.515 h

Question: What about the Tmax [2] of the same compound?
Answer: 1 h

Question: What about the AUC(0-t) (SD, oral administration 400 mg/kg) of the same compound?
Answer: 681 ± 93 ng·h/mL

Question: What about the CL/F (SD, oral administration 400 mg/kg, n = 8, read-out: Clz/F (converted)) of the same compound?
Answer: 254 L/h/kg

Question: What about the Cmax (SD, oral administration 400 mg/kg, n = 8, read-out: Cmax/C0 (Cmax)) of the same compound?
Answer: 260 ± 32 ng/mL

Question: What about the t1/2z (intravenous administration 2.5 mg/kg, n = 8, 2.5 mg/kg) of the same compound?
Answer: 3.885 ± 0.389 h

Question: What about the t1/2z (oral administration 400 mg/kg, n = 8, 400 mg/kg) of the same compound?
Answer: 3.136 ± 0.357 h
